From patent US8637556B2, “Linked Myc-max small molecule inhibitors” (University of Pittsburgh—Of the Commonwealth System of …, priority 2009, dated 2014)
Like-named read-outs stand apart in the source and are kept apart here. Blank lines part the entries; values can stand above or below the compound they belong to.

Tests used:
[1] = system: HL60 promyelocytic leukemia cells; test: HL60 cell growth inhibition (MTT assay); type: cell-based; settings: Homo sapiens, HL-60; Table 3; MTT, third day; read-out: Growth inhibition HL60
Procedure: (§1) These assays were performed as previously described using HL60 promyelocytic leukemia cells and Daudi Burkitt lymphoma cells, each of which expresses high levels of endogenous c-Myc (Wang, H. et al. Mol. Cancer Ther. 6, 2399-408 (2007)). As controls for non-specific effects of bivalent compounds, we utilized a c-Myc nulllizygous strain of rat fibroblasts (Mateyak, M. K., et al. Cell Growth & Differentiation 8, 1039-48 (1997)) expressing the c-Myc target genes MT-MC1 and HMGAIb, each of which restores a normal growth rate as well as the TGR1 fibroblast line from which the nullizygous line was derived (Wang, H. et al. Mol. Cancer Ther. 6, 2399-408 (2007); Mateyak, M. K., et al. Cell Growth & Differentiation 8, 1039-48 (1997); and Rothermund, K. et al. Cancer Research 65, 2097-107 (2005)). […] Cell quantification was performed on triplicate wells over the ensuing 4-5 days without changing the medium by measuring the absorbance at 490 nm using the MTT assay (Mosmann, T. Journal of Immunological Methods 65, 55-63 (1983)). IC50 values were estimated from linear regression of the inhibition data at the third day of each experiment.
(§2) We evaluated the efficacy of the linked compounds 11, 12, 13, 16, 17, 18 in inhibiting the c-Myc-Max interaction by measuring the binding of a target DNA sequence (E-Box) by the protein heterodimers in an electrophoretic mobility shift assay (EMSA). […] A fluorinated substitute of 14, 24, the choice of which was based upon the results of structure activity relationship studies described in Wang, H. et al. (Mol. Cancer Ther. 6, 2399-408 (2007)), was employed at this purpose (Muller, K., et al. Science 317, 1881-6 (2007) and Kirk, K. L. Current Topics in Medicinal Chemistry 6, 1447-56 (2006)).

[2] = system: Daudi Burkitt lymphoma cells; test: Burkitt's lymphoma cell growth inhibition (MTT assay); type: cell-based; settings: Homo sapiens, Table 3, MTT, third day, read-out: Growth inhibition BL
Procedure: as §1, §2

[3] = target: T1, c-Myc353-437 (monomeric c-Myc bHLH-ZIP) (Homo sapiens, UniProt P01106); test: Fluorescence polarization titration, c-Myc bHLH-ZIP binding; settings: for c-Myc binding affinity (in words): FP; for Kd: Table 1
T1 construct: recombinant monomeric c Myc bHLH-ZIP (amino acids 353-437); 6xHis with TEV site (N, cleaved yes); made in house; host or cells: E. coli BL21DE3(pLysS)
Text: A c-Myc353-437 full-length bHLH-ZIP domain and its truncated version c-Myc390-439 were produced from the c-Myc/pET SKB3 construct, kindly supplied by Dr. S. K. Nair (University of Illinois, Urbana-Champaign), by insertion into the pET151D vector, encoding an N-terminal hexahistidine (6× His), separated by a TEV protease digestion site, with the TOPO® ligation system, and over-expressed in E. coli BL21DE3(pLysS). The 6× His tagged human Max isoform p21, with low homodimerization affinity^70, cloned into the pQE10 vector (Qiagen, Inc.), was over-expressed in E. coli M15(pRep4). Bacterial cultures were grown at 37° C. in LB medium to OD600≈0.8, then induced with 0.5 mM IPTG for 5 hours. Proteins were purified by Ni-agarose chromatography with a pH gradient elution. The 6× His tag of c-MYC353-437 and c-Myc390-439 was cleaved using TEV protease (the TEV protease was expressed in a pET24 vector [courtesy of S. K. Nair] and purified by Ni-agarose chromatography under native conditions). All the proteins were further purified by HPLC and lyophilized. Protein concentrations were determined by measurement of OD280. The synthetic peptide c-Myc363-381 is described in Follis, A. V., Hammoudeh, D. I., Wang, H., Prochownik, E & Metallo, S. J. Structural rationale for the coupled binding and unfolding of the c-Myc oncoprotein by small molecules. Chemistry & Biology 15, 1149-1155 (2008).
Samples were analyzed in a Photon Technology International QuantaMaster fluorimeter (Birmingham, N.J.) equipped with polymer sheet polarizers. Titration experiments were performed upon serial dilution of 1:1 equimolar solution of inhibitor and either c-Myc353-437, c-Myc390-439 or c-Myc363-381 in a 1×PBS buffer (137 mM NaCl, 2.7 mM KCl, 4.3 mM Na2HPO4, 1.4 mM KH2PO4, pH=7.4), 5% DMSO, over concentrations ranging between 200 μM and 1.5 nM. Excitation and emission wavelengths were independently determined for each inhibitor. Reported data represent the average of at least three independent experiments. Data were fit to a quadratic equation derived from the thermodynamic expression of binding equilibrium:
[formula] where [C]0 represents the total concentration of inhibitor and of c-Myc peptide. The value of KD was determined from the experimental polarization data by fitting to Eq. 2 using KaleidaGraph (Synergy Software, Reading, Pa.) where pol0 is the polarization in the absence of binding and Δpol is the total change in polarization (Park, S. H. & Raines, R. T. Fluorescence polarization assay to quantify protein-protein interactions. Methods in Molecular Biology 261, 161-6 (2004)).
[formula] Due to the very tight binding of some of the tested compounds, it was impossible to perform a full binding titration with an acceptable fluorescence intensity, therefore the polo parameter was experimentally determined from samples of each compound in the absence of c-Myc353-437 at a concentration of 25 μM. Binding specificity experiments were performed by monitoring the FP of 10 μM inhibitors solutions in the above-described buffer in the presence of equimolar p21 Max. […] Circular Dichroism.
Also in this case the c-Myc binding affinity was little affected by the introduction of the linker chain (Table 1, FIG. 11).
We then measured the affinity of the synthesized bivalent inhibitors, by monitoring the FP of the compounds nitrobenzofurazan moiety. […] The estimated free energy of binding of the bivalent compounds was roughly proportional to the sum of those of their monovalent components. In the thermodynamic analysis of multivalent binding a ΔG^s term is used to relate the free energy of binding of a multivalent compound to the sum of those of its monovalent components. This term implies the diverse energy contributions resulting from the linking of independent binding components. The ΔG^s term generally constitutes a negative contribution to the binding affinity of distinct binding components connected by a flexible linker to a given target.

[4] = FP titration with c-Myc353-437, 1xPBS pH 7.4, 5% DMSO, read-out: KD (c-Myc affinity, monovalent)

T1 sequence (P01106 368-452): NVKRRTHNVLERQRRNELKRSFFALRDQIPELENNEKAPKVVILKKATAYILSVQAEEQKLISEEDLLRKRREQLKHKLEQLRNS

SMILES: CCc1ccc(C=C2SC(=S)NC2=O)cc1 [compound 2, (Z,E)-5-(4-ethyl-benzylidene)-2-thioxo-thiazolidin-4-one, reference compound]
IC50 [1]: 50 µM
IC50 [2]: 40 µM

SMILES: O=[N+]([O-])c1ccc(Nc2ccccc2)c2nonc12 [compound 3]
c-Myc binding affinity (in words) [3]: minor loss of c-Myc affinity
Kd [3, 4]: 7 ± 1 µM

SMILES: CN(C)c1ccc([N+](=O)[O-])c2nonc12 [compound 4]
c-Myc binding affinity (in words) [3]: complete loss of binding affinity
Kd [3, 4]: > 200 µM

SMILES: O=C(O)c1ccccc1Nc1ccc([N+](=O)[O-])c2nonc12 [compound 5]
Kd [3, 4]: 13 ± 5 µM

The remaining lines, values ahead:

Kd [3, 4]: 16 ± 6 µM
SMILES: O=C(O)c1cccc(Nc2ccc([N+](=O)[O-])c3nonc23)c1 [compound 6]

Kd [3, 4]: 3 ± 1 µM
c-Myc binding, times tighter than 5 and 6 ([3]; relative to compounds 5 and 6): ~5 times
SMILES: O=C(O)c1ccc(Nc2ccc([N+](=O)[O-])c3nonc23)cc1 [compound 7]

Kd [3, 4]: 90 ± 40 µM
SMILES: CC(=O)NCCCCCNC(=O)c1ccc(C=C2SC(=S)NC2=O)cc1 [compound 10]

IC50 [1]: 7 to 9 µM
IC50 [2]: 14 to 16 µM
Kd ([3]; FP of nitrobenzofurazan moiety, c-Myc353-437, read-out: KD (c-Myc affinity, bivalent)): 0.004 ± 0.001 µM
SMILES: CCc1ccc(C=C2SC(=O)N(CCCCNC(=O)c3ccc(Nc4ccc([N+](=O)[O-])c5nonc45)cc3)C2=O)cc1 [compound 21]
